Laboratory results: patent publication US20260217701A1, “SELECTIVE BET INHIBITORS AND USES THEREOF” (Tay Therapeutics Limited, priority 2022, published 2026)
Entries after “also recorded” stand apart in the source; their conditions may differ. Like-named read-outs stand apart in the source and are kept apart here. Marks after values point to notes of the source that are not given here.

Key:
[1] = test system: anti-collagen IgG1; test: CIA model: rat anti-collagen IgG1 levels; assay type: in vivo, Lewis rats; parameters: Average rat anti-collagen IgG1 levels, Mean: unit not given here
[2] = test system: collagen-induced arthritis; conditions: for average overall clinical score at plateau: around day 18-19
Description: (§1) The emulsion was cooled in an ice water bath during the formulation. The final concentration of collagen was 1 mg/mL. The emulsion is prepared fresh immediately prior to injection.
as §1
Experimental groups for the study are outlined in Table 5A. […] Animals in group one received no immunization.
IHC markers for staining were selected after evaluating clinical and histopathological scores for animals. After the skin was removed, the right hind limb was snap frozen in liquid nitrogen and RNA and protein analysis was performed.
Blood samples were collected from animals in groups 1-7 via cardiac puncture following euthanasia on Day 21. […] Serum was divided into two separate tubes and stored at −75±15° C. One tube was used to analyze IgG1, and the other tube was reserved for additional analyses.
H&E-stained slides of designated tissues from animals were transferred to an independent pathologist for microscopic evaluation (SPFBio). Samples were assigned the histologic grades based on the severity of change from tissue where CIA was not induced. Histology grades assigned were as follows: grade 1 (minimal change), grade 2 (mild change), grade 3 (moderate change), grade 4 (marked change), and grade 5 (severe change). A grade may be assigned for each indicator of disease severity: inflammation, mixed cell; granulation tissue; increased bone, periosteum; increased eroded surface, bone and erosion/ulcer, cartilaginous. […] Moderate inflammation was also associated with increased edema fluid, fibrin, and cellular debris. Marked mixed cell inflammation was characterized by dense, widespread accumulations of neutrophils and macrophages with lesser number of lymphocytes within one or more joint spaces, synovium and periarticular soft tissues. Marked inflammation was also associated with abundant edema fluid, fibrin, and cellular debris.
Marked granulation tissue (pannus) was associated with inflammation and was characterized by widespread fibrovascular connective tissue that expanded/replaced the periarticular soft tissues of one or more joints, extended into/expanded joint spaces, was contiguous with areas of erosion/ulcer in articular cartilage and/or increased eroded surface of bone, and variably extended along the diaphysis.
Marked increased periosteal bone (periosteal bone formation) was characterized by extensive areas of increased bone matrix and numerous prominent osteoblasts lining trabecular surfaces along the metaphysis and/or diaphysis of one or more bones.

[3] = test system: collagen-induced arthritis; test: CIA model: histopathologic analysis of hind limbs; assay type: in vivo, Lewis rats; conditions: for Erosion/Ulcer, cartilaginous, Marked (number of animals) / Erosion/Ulcer, cartilaginous, Mild (number of animals) / Erosion/Ulcer, cartilaginous, Minimal (number of animals) / Erosion/Ulcer, cartilaginous, Moderate (number of animals) / Granulation tissue, Marked (number of animals) / Granulation tissue, Mild (number of animals) / Granulation tissue, Minimal (number of animals) / Granulation tissue, Moderate (number of animals) / Increased bone, periosteum, Marked (number of animals) / Increased bone, periosteum, Mild (number of animals) / Increased bone, periosteum, Minimal (number of animals) / Increased bone, periosteum, Moderate (number of animals) / Increased eroded surface, bone, Marked (number of animals) / Increased eroded surface, bone, Mild (number of animals) / Increased eroded surface, bone, Minimal (number of animals) / Increased eroded surface, bone, Moderate (number of animals) / Mixed cell inflammation, Marked (number of animals) / Mixed cell inflammation, Mild (number of animals) / Mixed cell inflammation, Minimal (number of animals) / Mixed cell inflammation, Moderate (number of animals) / No Visible Lesions (number of animals): hind limbs, CIA induced, 8 animals examined
Source text: Mean histopathologic scores for tissue samples from animals in Groups 1-6 are depicted in FIG. 22A, and day 21 histology scores for all animals are illustrated in FIG. 22B.

[4] = Group 6 (CIA + Compound A 3 mg/kg)
[5] = Group 5 (CIA + Compound A 1 mg/kg), 1 mg/kg
[6] = Group 7 (CIA + Compound A 10 mg/kg), two out of eight samples

Cn1cc(-c2ccccc2)c(-c2cn(C)c(=O)c3[nH]c(-c4cnn(C(F)(F)F)c4)cc23)cc1=O [Compound A, 6-methyl-4-(1-methyl-2-oxo-5-phenyl-1,2-dihydropyridin-4-yl)-2-(1-(trifluoromethyl)-1H-pyrazol-4-yl)-1,6-dihydro-7H-pyrrolo[2,3-c]pyridin-7-one]
Average rat anti-collagen IgG1 levels, Mean ([1]; Group 5 (CIA + Compound A 1 mg/kg)): 1180.61** | Average rat anti-collagen IgG1 levels, Mean [1, 4]: 569.60** | Average rat anti-collagen IgG1 levels, Mean ([1]; Group 7 (CIA + Compound A 10 mg/kg)): 220.15** | Inhibition of IgG1 ([1]; all three doses): near complete inhibition of IgG1 | plateau increase in paw volume relative to day 0 ([2]; 1 mg/kg (group 5), around day 18): approximately 50% | animals exhibiting disease ([2]; 1 mg/kg (group 5), day 14): 5/8 | animals exhibiting disease ([2]; 1 mg/kg (group 5), day 18): 7/8 | percent inhibition in clinical score relative to GSK620 ([2]; 1 mg/kg and 3 mg/kg vs GSK620 10 mg/kg): nearly twice as high | percent inhibition of increase in paw volume relative to GSK620 ([2]; 1 mg/kg or 3 mg/kg vs GSK620 10 mg/kg): more than twice | plateau increase in paw volume relative to day 0 ([2]; 3 mg/kg): approximately 40% | animals exhibiting disease ([2]; 3 mg/kg (group 6), day 15): 4/8 | animals exhibiting disease ([2]; 3 mg/kg (group 6), day 18): all animals | animals exhibiting disease ([2]; 10 mg/kg (group 7), day 15): 4/8 | animals exhibiting disease ([2]; 10 mg/kg (group 7), day 18): 7/8 | decrease in paw volume relative to CIA+Vehicle ([2]; 10 mg/kg PO QD, Day 21): ~79% | reduction in clinical score compared to vehicle-treated animals ([2]; 10 mg/kg PO QD, Day 21): ~71% | rat anti-collagen IgG1 antibodies, lower than vehicle treated animals ([2]; 10 mg/kg, day 21, serum): > 98% | plateau increase in paw volume relative to day 0 ([2]; 10 mg/kg, Group 7): approximately 35% | rat anti-collagen IgG1 antibodies relative to untreated CIA animals ([2]; 1, 3 and 10 mg/kg, day 21, p<0.01): significantly decreased | average overall clinical score at plateau ([2]; group 5 (1 mg/kg)): 5 | average overall clinical score at plateau ([2]; group 6 (3 mg/kg)): 4 | average overall clinical score at plateau ([2]; group 7 (10 mg/kg)): 4 | Samples with no pathologic observations ([3]; 1 mg/kg, Group 5): One out of eight | Samples with no pathologic observations ([3]; 3 mg/kg, Group 6): Two out of eight | Samples with no pathologic observations ([3]; 10 mg/kg, Group 7): Six out of eight | Animals exhibiting normal limb/joint pathology ([3]; 10 mg/kg, day 21): 6/8 | Erosion/ulcer in articular cartilage, grade [3, 5]: mild and mild to moderate | Granulation tissue (pannus), grade [3, 5]: mild and mild to moderate | Increased eroded surface of bone (bone resorption), grade [3, 5]: mild and mild to moderate | Increased periosteal bone (periosteal bone formation), grade [3, 5]: mild and mild to moderate | Mixed cell inflammation, grade [3, 5]: moderate to marked | Erosion/ulcer in articular cartilage, grade [3, 4]: mild | Increased eroded surface of bone (bone resorption), grade [3, 4]: mild | Increased periosteal bone (periosteal bone formation), grade [3, 4]: mild | Mixed cell inflammation, grade [3, 4]: moderate | Granulation tissue (pannus), grade ([3]; Group 6 (CIA + Compound A 3 mg/kg), 3 mg/kg): mild and mild to moderate | Histopathological observations, representative sample/image ([3]; Group 7 (CIA + Compound A 10 mg/kg), FIG. 23G, 23I, 10 mg/kg): no histopathological observations noted; also recorded: normal joint pathology | Erosion in the articular cartilage, grade [3, 6]: mild | Granulation tissue (pannus), grade [3, 6]: mild | Increased periosteal bone (periosteal bone formation), grade [3, 6]: minimal | Mixed cell inflammation, grade [3, 6]: mild to moderate | Pathologic observations relative to CIA-induced group (Group 2) ([3]; Groups 5-7 (Compound A 1, 3, 10 mg/kg)): all decreased in severity, extent, and distribution | Severity of arthritic histopathology versus vehicle- and GSK620-treated animals ([3]; all tested doses (1, 3, 10 mg/kg)): dose-dependent reduction in the severity of arthritic histopathology; also recorded: significant dose-dependent decrease in the incidence and severity of collagen-induced arthritis | Erosion/Ulcer, cartilaginous, Marked (number of animals) ([3]; 1 mg/kg): 0 | Erosion/Ulcer, cartilaginous, Mild (number of animals) ([3]; 1 mg/kg): 6 | Erosion/Ulcer, cartilaginous, Minimal (number of animals) ([3]; 1 mg/kg): 0 | Erosion/Ulcer, cartilaginous, Moderate (number of animals) ([3]; 1 mg/kg): 1 | Granulation tissue, Marked (number of animals) ([3]; 1 mg/kg): 0 | Granulation tissue, Mild (number of animals) ([3]; 1 mg/kg): 3 | Granulation tissue, Minimal (number of animals) ([3]; 1 mg/kg): 0 | Granulation tissue, Moderate (number of animals) ([3]; 1 mg/kg): 3 | Increased bone, periosteum, Marked (number of animals) ([3]; 1 mg/kg): 0 | Increased bone, periosteum, Mild (number of animals) ([3]; 1 mg/kg): 4 | Increased bone, periosteum, Minimal (number of animals) ([3]; 1 mg/kg): 1 | Increased bone, periosteum, Moderate (number of animals) ([3]; 1 mg/kg): 0 | Increased eroded surface, bone, Marked (number of animals) ([3]; 1 mg/kg): 0 | Increased eroded surface, bone, Mild (number of animals) ([3]; 1 mg/kg): 3 | Increased eroded surface, bone, Minimal (number of animals) ([3]; 1 mg/kg): 0 | Increased eroded surface, bone, Moderate (number of animals) ([3]; 1 mg/kg): 2 | Mixed cell inflammation, Marked (number of animals) ([3]; 1 mg/kg): 0 | Mixed cell inflammation, Mild (number of animals) ([3]; 1 mg/kg): 2 | Mixed cell inflammation, Minimal (number of animals) ([3]; 1 mg/kg): 1 | Mixed cell inflammation, Moderate (number of animals) ([3]; 1 mg/kg): 4 | No Visible Lesions (number of animals) ([3]; 1 mg/kg): 1 | Erosion/Ulcer, cartilaginous, Marked (number of animals) ([3]; 3 mg/kg): 0 | Erosion/Ulcer, cartilaginous, Mild (number of animals) ([3]; 3 mg/kg): 3 | Erosion/Ulcer, cartilaginous, Minimal (number of animals) ([3]; 3 mg/kg): 3 | Erosion/Ulcer, cartilaginous, Moderate (number of animals) ([3]; 3 mg/kg): 0 | Granulation tissue, Marked (number of animals) ([3]; 3 mg/kg): 0 | Granulation tissue, Mild (number of animals) ([3]; 3 mg/kg): 4 | Granulation tissue, Minimal (number of animals) ([3]; 3 mg/kg): 0 | Granulation tissue, Moderate (number of animals) ([3]; 3 mg/kg): 2 | Increased bone, periosteum, Marked (number of animals) ([3]; 3 mg/kg): 0 | Increased bone, periosteum, Mild (number of animals) ([3]; 3 mg/kg): 4 | Increased bone, periosteum, Minimal (number of animals) ([3]; 3 mg/kg): 2 | Increased bone, periosteum, Moderate (number of animals) ([3]; 3 mg/kg): 0 | Increased eroded surface, bone, Marked (number of animals) ([3]; 3 mg/kg): 0 | Increased eroded surface, bone, Mild (number of animals) ([3]; 3 mg/kg): 3 | Increased eroded surface, bone, Minimal (number of animals) ([3]; 3 mg/kg): 2 | Increased eroded surface, bone, Moderate (number of animals) ([3]; 3 mg/kg): 0 | Mixed cell inflammation, Marked (number of animals) ([3]; 3 mg/kg): 0 | Mixed cell inflammation, Mild (number of animals) ([3]; 3 mg/kg): 2 | Mixed cell inflammation, Minimal (number of animals) ([3]; 3 mg/kg): 0 | Mixed cell inflammation, Moderate (number of animals) ([3]; 3 mg/kg): 4 | No Visible Lesions (number of animals) ([3]; 3 mg/kg): 2 | Erosion/Ulcer, cartilaginous, Marked (number of animals) ([3]; 10 mg/kg): 0 | Erosion/Ulcer, cartilaginous, Mild (number of animals) ([3]; 10 mg/kg): 1 | Erosion/Ulcer, cartilaginous, Minimal (number of animals) ([3]; 10 mg/kg): 1 | Erosion/Ulcer, cartilaginous, Moderate (number of animals) ([3]; 10 mg/kg): 0 | Granulation tissue, Marked (number of animals) ([3]; 10 mg/kg): 0 | Granulation tissue, Mild (number of animals) ([3]; 10 mg/kg): 1 | Granulation tissue, Minimal (number of animals) ([3]; 10 mg/kg): 0 | Granulation tissue, Moderate (number of animals) ([3]; 10 mg/kg): 0 | Increased bone, periosteum, Marked (number of animals) ([3]; 10 mg/kg): 0 | Increased bone, periosteum, Mild (number of animals) ([3]; 10 mg/kg): 0 | Increased bone, periosteum, Minimal (number of animals) ([3]; 10 mg/kg): 0 | Increased bone, periosteum, Moderate (number of animals) ([3]; 10 mg/kg): 0 | Increased eroded surface, bone, Marked (number of animals) ([3]; 10 mg/kg): 0 | Increased eroded surface, bone, Mild (number of animals) ([3]; 10 mg/kg): 0 | Increased eroded surface, bone, Minimal (number of animals) ([3]; 10 mg/kg): 1 | Increased eroded surface, bone, Moderate (number of animals) ([3]; 10 mg/kg): 0 | Mixed cell inflammation, Marked (number of animals) ([3]; 10 mg/kg): 0 | Mixed cell inflammation, Mild (number of animals) ([3]; 10 mg/kg): 1 | Mixed cell inflammation, Minimal (number of animals) ([3]; 10 mg/kg): 0 | Mixed cell inflammation, Moderate (number of animals) ([3]; 10 mg/kg): 1 | No Visible Lesions (number of animals) ([3]; 10 mg/kg): 6
